{
  "source": "patent US20240424024A1",
  "about": "“PHARMACEUTICAL COMPOSITION AND KIT COMPRISING AN IMMUNOMODULATORY SUBSTANCE FOR TREATING DISEASES” (ellennbe GmbH, priority 2021, published 2024)",
  "origin": "cited, not measured here",
  "system": "perfusion of the skin",
  "conditions": "50 μl of 20 mmol/l MN, healthy subjects, Laser Speckle Contrast Imager; Elawa et al. 2020",
  "data": [
    {"smiles": "COC(=O)c1cccnc1", "note": "[methyl nicotinate]", "values": [
      {"measurement": "perfusion increase of the skin after topical application", "value": "reaches a stable plateau phase after five minutes"}
    ]}
  ]
}
